Like-named read-outs stand apart in the source and are kept apart here.
What was measured:
[1] = Cytotoxicity in HepDES19 cells, MTT assay; type: cell-based; conditions: human, Table 10, HepDES19 cells, unit inferred
Description: Determination of cytotoxicity of compounds of the disclosure in human hepatoma-derived cell lines, HepDES19 cells were seeded into 96-well plates at a density of […] cells per well and cultured in DMEM/F12 media with 10% fetal bovine serum in the absence of tetracycline. One day after seeding, cells were left untreated or treated with a serial dilution of testing compounds, ranging from 50 μM to 0.39 μM, for 6 days. The cell viability was measured by a MTT assay, following procedure provided by the manufacturer (Promega). The cytotoxicity of a compound was expressed as the concentration of compound that reduces the viability of the cells by 50% (CC50).

encapsidated pgRNA = experiment: Encapsidated pgRNA by Northern blot in AML12HBV10 cells; type: cell-based, Hepatitis B virus (HBV); conditions: 2 days, FIG. 3 panel C, Bay41-4109 5 μM, AT-61 25 μM
Description: (§1) To obtain mechanistic insight of the compounds of present invention against HBV, AML12HBV10 cells cultured in the 12-well plates were treated with a series of concentrations of DVR-1, DVR-56 or DVR-23 for two days in the absence of tetracycline (Guo et al., 2007). As positive controls, the cells were also treated with Bay41-4109 (5 μM) or AT-61 (25 μM), the known HBV nucleocapsid assembly effectors that either bind to HBV core protein dimmer to misdirect its interaction and prevent capsid formation (Bay41-4109) (Deres et al., 2003: Stray and Zlotnick, 2006), or interact with a core assembly intermediate and promote the formation of empty capsids (AT-61) (Feld et al., 2007; Katen et al., King et al., 1998). The amounts of intracellular viral mRNA, encapsidated pgRNA, capsids and nucleocapsid-associated HBV DNA were analyzed with the methods detailed below.
Determination of encapsidated pgRNA: AML12HBV10 cells were lysed by addition of 600 μl of lysis buffer (50 mM Tris-HCl [pH 7.5], 1 mM EDTA, 150 mM NaCl, 1% NP-40) into each well of 12-well plates. The nuclei were removed by centrifugation at 5,000 g for 10 minutes. One-half of the sample was mixed with 6 U of micrococcal nuclease (Pharmacia) and 15 μl of 100 mM CaCl2 and incubated for 15 minutes at 37° C. to digest free nucleic acids. The reaction was stopped with 6 μl of 0.5 M EDTA, and capsids were precipitated by adding 125 μl of 35% polyethylene glycol 8000 in 1.75 M NaCl to the reaction and incubating in ice for 30 minutes, followed by centrifugation at 6,000 g for 10 minutes at 4° C. Pellets were re-suspended in 50 μl of TNE buffer (10 mM Tris-HCl [pH 8], 100 mM NaCl, 1 mM EDTA), pgRNA was extracted by the addition of 1 ml of Trizol reagent. The encapsidated pgRNA were electrophoresed through a 2.2 M formaldehyde-1% agarose gel, transferred to a nylon membrane, and immobilized by UV cross-linking (Stratagene). Hybridization was performed with an alpha-^32P-UTP labeled riboprobe specific for plus strand of HBV genome.

[2] = Cytotoxicity in AML12HBV10 cells, MTT assay; type: cell-based, murine; conditions: mouse; AML12HBV10 cells, 48 hours, MTT; read-out: CC50 (cellular toxicity)
Description: (§2) Determination of cytotoxicity of compounds of the disclosure in AML12HBV10 cells: To determine the cytotoxicity of the compounds, AML12HBV10 cells were seeded into 96-well plates at a density of 2×10^4 cells per well and cultured in DMEM/F12 media with 10% fetal bovine serum in the absence of tetracycline to allow pgRNA transcription and HBV DNA replication. One day after seeding, cells were left untreated or treated with a serial dilution of testing compounds, ranging from 50 μM to 0.39 μM, for 48 hours. The cell viability was measured by a MTT assay, following procedure provided by the manufacturer (Promega). The cytotoxicity of a compound was expressed as the concentration of compound that reduces the viability of the cells by 50% (CC50).

AML12HBV10 cells = experiment: Cytotoxicity in AML12HBV10 cells, MTT assay; type: cell-based, murine; conditions: Table 10, AML12HBV10 cells, unit inferred; read-out: AML12HBV10 CC50
Description: as §2

HBV = experiment: Antiviral efficacy in AML12HBV10 cells, HBV DNA by dot-blot hybridization; type: cell-based, Hepatitis B virus (HBV); conditions: Hepatitis B virus
Description: The antiviral efficacy of the compounds of the disclosure, as presented in Tables 5, 6, 7, 8 and 9, were determined in AML12HBV10 cells. AML12HBV10 is an immortalized murine hepatocyte (AML12)-derived stable cell line that supports robust HBV replication in a tetracycline inducible manner (Xu et al.). The cells were seeded into 96 well plates at a density of 2×10^4 cells per well and cultured in DMEM/F12 media with 10% fetal bovine serum in the absence of tetracycline to allow pgRNA transcription and HBV DNA replication. One day after seeding, cells were left untreated or treated with a serial dilution of testing compounds, ranging from 50 μM to 0.39 μM, for 48 hours. Cells were then lysed by adding into each well of 100 μl lysis buffer containing 10 mM Tris-HCl (pH 7.6), 1 mM EDTA, 100 mM NaCl and 1% NP-40 and incubated at 37° C. for 30 minutes. Half amount (50 μl) of cell lysate from each well was combined with equal volume of denaturing solution containing 0.5N NaOH and 1.5M NaCl. After 5 minute incubation, 100 μl of neutralization solution (IM Tris-HCl, pH 7.4, 1.5M NaCl) was added into each well. The denatured cell lysates (totally 200 μl) were applied onto Nylon membrane using 96-well dot-blot manifold (Biorad). HBV DNA in the cell lysates were determined by dot-blot hybridization with alpha-^32P-UTP-labelled riboprobe specific for HBV minus strand DNA. The antiviral efficacy of a compound of the disclosure was expressed as the concentration that reduces the amount of HBV DNA by 50% (EC50).

HBV mRNA = experiment: Analysis of HBV mRNA by Northern blot in AML12HBV10 cells; type: cell-based, Hepatitis B virus (HBV); conditions: 2 days, FIG. 3 panel A
Description: as §1
Procedure for analysis of HBV mRNA: Upon the completion of treatment, total cellular RNA was extracted with TRIzol reagents (Invitrogen). Five micrograms of total RNA was resolved in 1.5% agarose gel containing 2.2 M formaldehyde and transferred onto Hybond-XL membrane in 20×SSC buffer. The amounts of HBV mRNA were determined by Northern blot hybridization with an alpha-^32P-UTP labeled riboprobe specific for plus strand of HBV genome.

[3] = AML12HBV10 cells, 48 hours, concentration reducing HBV DNA by 50%, read-out: EC50 (antiviral activity by dot blot hybridization)
[4] = Table 10, AML12HBV10 cells, unit inferred, read-out: AML12HBV10 EC50

Structure (SMILES)	CC50 at 6 days [1] [nM]	level of encapsidated pgRNA (encapsidated pgRNA)	CC50 at 48 h [2] [nM]	CC50 (AML12HBV10 cells) [nM]	EC50 (HBV; [3]) [nM]	EC50 (HBV; [4]) [nM]	amount of viral mRNA (HBV mRNA)
CCC(C)NS(=O)(=O)c1ccc(F)c(C(=O)Nc2ccc(F)c(F)c2)c1 (centres unmarked) [DVR-23, 5-sec-butylsulfamoyl-N-(3,4-difluoro-phenyl)-2-fluoro-benzamide]	> 50000	dose-dependently reduced	> 50000	> 50000	390	390	did not affect
O=C(Nc1ccc(F)c(F)c1)c1cc(S(=O)(=O)NC2CCCC2)ccc1F [DVR-56, 5-cyclopentylsulfamoyl-N-(3,4-difluoro-phenyl)-2-fluoro-benzamide]	> 50000	dose-dependently reduced	> 50000	> 50000	390	390	did not affect
